Key:
CNS-1 glioma cells = assay: Co-culture of CD-NSCs with glioma cells plus 5-FC: tumor cell count per high-power field; type: cell-based; conditions: tumor cell-only plates, no CD-NSCs, 5-FC 500 μg/ml
From the text: FIGS. 2A-2C summarize the significant antitumor effect of CD-expressing NSCs in vitro. CNS-1 glioblastoma cells were co-cultured with murine CD-NSCs (FIGS. 2A and 2B) or human CD-NSCs. Representative low power fields are shown after fixation and X-gal staining (CD-NSCs dark blue, tumor cells pale) three days after plating with or without 5-FC. […] In this treatment regime, the NSCs were still dividing and thus also subject to elimination by 5-FU and its toxic metabolites. […] Note also, that the tumor-killing effect was virtually identical whether 50,000 or 100,000 CD-NSCs were initially plated with 200,000 tumor cells.
This experiment was performed to determine if modified CD-NSCs could effectively deliver therapy to tumor cells and produce a profound antitumor response. 200,000 CNS-1 glioma cells were plated into 10 cm Petri dishes. The following day (Day 1) media were replaced, and 50,000 or 100,000 CD-NSCs were added. On Day 2, media were replaced and 5-FC added (500 μg/ml). Control dishes included tumor-NSC co-cultures with no 5-FC treatment and tumor cell-only dishes with 5-FC treatment. Three days later, all plates were rinsed well with 1× PBS and fixed with 4% paraformaldehyde for 10 min at room temperature. […] Under high power, the numbers of tumor cells per field were counted. […]

CNS-1 glioblastoma = assay: Intracranial CNS-1 tumor co-transplanted with CD-NSCs, i.p. 5-FC: tumor mass; type: in vivo, adult nude mice; conditions: tumor alone, 5-FC 900 mg/kg i.p. for 10 days
From the text: CNS-1 glioblastoma cells alone, or CNS-1 cells co-transplanted with human CS-NSCs were implanted into the frontal lobe of adult nude mice. Two days later, treated animals began to receive daily intraperitoneal injections of 5-FC which continued for ten days. […] Note that there was about an 80% reduction in tumor mass in 5-FC-treated animals transplanted with tumor and CD-NSCs (FIG. 3D). […] FIGS. 3B, 3C and 3D are “camera lucida” sections of tumor areas on representative cryostat tissue sections, stained with X-gal and counterstained with neutral red.
On Day 0, adult nude mice received stereotactically guided injections into the right frontal lobe of CNS-1 glioblastoma alone (7×10^4 in 2 μl PBS), or CNS-1 cells mixed with CD-NSCs (7×10^4 CNS-1 and 3.5×10^4 NSCs in 2 μl PBS). Two days later treated animals received 10 intraperitoneal injections 900 mg/kg of 5-FC over a period of 10 days. Control animals received no 5-FC. Animals were sacrificed on day 13.

Nc1nc(=O)[nH]cc1F [5-FC, 5-fluorocytosine]
killing of tumor cells, tumor alone (CNS-1 glioma cells): not significantly killed | effect on tumor mass in the absence of CD-NSCs (CNS-1 glioblastoma): no effect on tumor mass
